Measured values: patent US20060035901A1, “Methotrexate derivatives useful for treating cancer and arthritis” (Serenex, Inc., priority 2004, published 2006)

Columns and labels:
[1] = target: T1, propionyl-CoA carboxylase subunit beta (PCCB) (Sus scrofa, UniProt P79384); test: Elution of PCCB from ATP-Sepharose column loaded with porcine liver proteome, IC50 estimate; format: binding; settings: estimated from percent of protein eluted from ATP-Sepharose column, read-out: Approximate IC50 for PCCB
T1 construct: a porcine liver proteome was run over an ATP-Sepharose™ column; from tissue; host or cells: porcine liver
T1 sequence (P79384 29-539): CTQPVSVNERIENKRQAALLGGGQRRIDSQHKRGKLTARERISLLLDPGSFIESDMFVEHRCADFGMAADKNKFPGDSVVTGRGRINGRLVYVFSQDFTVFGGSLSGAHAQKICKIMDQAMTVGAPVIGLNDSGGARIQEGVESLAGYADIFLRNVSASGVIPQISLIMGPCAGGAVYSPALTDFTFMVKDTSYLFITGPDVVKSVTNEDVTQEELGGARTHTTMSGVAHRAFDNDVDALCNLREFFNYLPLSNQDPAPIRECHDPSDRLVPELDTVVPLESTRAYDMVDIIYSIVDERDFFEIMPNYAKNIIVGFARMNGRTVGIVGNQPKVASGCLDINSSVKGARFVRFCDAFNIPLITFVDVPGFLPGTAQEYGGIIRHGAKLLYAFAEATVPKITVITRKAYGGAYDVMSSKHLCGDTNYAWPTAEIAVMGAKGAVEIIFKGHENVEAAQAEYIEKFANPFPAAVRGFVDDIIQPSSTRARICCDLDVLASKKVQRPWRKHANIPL
T1 sequence (P0DTA4 53-730 partner): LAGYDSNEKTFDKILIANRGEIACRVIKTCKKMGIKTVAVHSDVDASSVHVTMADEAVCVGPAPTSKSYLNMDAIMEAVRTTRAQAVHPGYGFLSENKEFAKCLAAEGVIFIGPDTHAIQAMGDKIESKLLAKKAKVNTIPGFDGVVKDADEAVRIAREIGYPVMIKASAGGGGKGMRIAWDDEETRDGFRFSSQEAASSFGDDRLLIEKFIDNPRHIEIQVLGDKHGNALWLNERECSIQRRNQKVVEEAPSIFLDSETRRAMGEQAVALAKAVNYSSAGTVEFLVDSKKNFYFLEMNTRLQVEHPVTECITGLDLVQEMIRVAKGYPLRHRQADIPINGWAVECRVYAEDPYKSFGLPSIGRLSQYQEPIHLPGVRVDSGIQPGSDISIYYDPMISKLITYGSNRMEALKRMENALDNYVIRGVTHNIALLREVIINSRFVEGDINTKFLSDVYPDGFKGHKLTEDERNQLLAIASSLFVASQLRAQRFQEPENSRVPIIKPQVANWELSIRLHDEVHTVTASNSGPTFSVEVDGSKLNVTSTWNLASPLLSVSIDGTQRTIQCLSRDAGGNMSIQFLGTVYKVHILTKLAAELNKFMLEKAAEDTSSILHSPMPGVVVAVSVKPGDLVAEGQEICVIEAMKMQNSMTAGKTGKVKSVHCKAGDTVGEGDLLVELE
Experimental: Similar experiments were carried out to compare the IC50 values for PYC, PCCA, and PCCB. In these trials, a porcine liver proteome was run over an ATP-Sepharose™ column to bind all purine-binding proteins. The ATP-Sepharose™ column was washed several times, and then eluted with the compound of Formula III at concentrations of 1 μM, 5 μM, 10 μM, 50 μM, 100 μM, and 500 μM to identify proteins that bound to this compound.
(§1) Gels were stained with a fluorescent stain such as sypro ruby (a highly sensitive fluorescent protein stain that can readily detect less than 1 fmol of total protein, i.e., less than 0.04 ng for a 40 kDa protein). The gels were imaged using a standard flat bed gel imager and the amount of protein estimated by densiometry. The percent of protein eluted from the column at each concentration was determined and IC50 values were calculated from these estimates. Where necessary, the eluted proteins were cut out of the gel, and identified using mass spectral techniques.
The values obtained were then compared to those for DHFR.

Her2 = Her2 (Homo sapiens, UniProt P04626); test: Elution of Her2 from ATP-Sepharose column by compound (Proteome Mining), IC50 estimate; format: binding; settings: estimated from percent of protein eluted from ATP-Sepharose column, gel densitometry; read-out: Approximate IC50 for Her2
Experimental: as §1, with “A proteome containing a known quantity of Her2, EGFR, and B-Raf was run over an ATP-Sepharose™ column in order to bind all purine-binding proteins. […] The ATP-Sepharose™ was washed several times, and then eluted with the compound of Formula III. The experiment was run in duplicate at concentrations of 20 μM, 100 μM, and 500 μM of the compound of Formula III. The eluted fractions were run on a 1-dimensional SDS polyacrylamide gel. Gels” for “Gels”

Her2, sequence (P04626 23-1255, species assumed): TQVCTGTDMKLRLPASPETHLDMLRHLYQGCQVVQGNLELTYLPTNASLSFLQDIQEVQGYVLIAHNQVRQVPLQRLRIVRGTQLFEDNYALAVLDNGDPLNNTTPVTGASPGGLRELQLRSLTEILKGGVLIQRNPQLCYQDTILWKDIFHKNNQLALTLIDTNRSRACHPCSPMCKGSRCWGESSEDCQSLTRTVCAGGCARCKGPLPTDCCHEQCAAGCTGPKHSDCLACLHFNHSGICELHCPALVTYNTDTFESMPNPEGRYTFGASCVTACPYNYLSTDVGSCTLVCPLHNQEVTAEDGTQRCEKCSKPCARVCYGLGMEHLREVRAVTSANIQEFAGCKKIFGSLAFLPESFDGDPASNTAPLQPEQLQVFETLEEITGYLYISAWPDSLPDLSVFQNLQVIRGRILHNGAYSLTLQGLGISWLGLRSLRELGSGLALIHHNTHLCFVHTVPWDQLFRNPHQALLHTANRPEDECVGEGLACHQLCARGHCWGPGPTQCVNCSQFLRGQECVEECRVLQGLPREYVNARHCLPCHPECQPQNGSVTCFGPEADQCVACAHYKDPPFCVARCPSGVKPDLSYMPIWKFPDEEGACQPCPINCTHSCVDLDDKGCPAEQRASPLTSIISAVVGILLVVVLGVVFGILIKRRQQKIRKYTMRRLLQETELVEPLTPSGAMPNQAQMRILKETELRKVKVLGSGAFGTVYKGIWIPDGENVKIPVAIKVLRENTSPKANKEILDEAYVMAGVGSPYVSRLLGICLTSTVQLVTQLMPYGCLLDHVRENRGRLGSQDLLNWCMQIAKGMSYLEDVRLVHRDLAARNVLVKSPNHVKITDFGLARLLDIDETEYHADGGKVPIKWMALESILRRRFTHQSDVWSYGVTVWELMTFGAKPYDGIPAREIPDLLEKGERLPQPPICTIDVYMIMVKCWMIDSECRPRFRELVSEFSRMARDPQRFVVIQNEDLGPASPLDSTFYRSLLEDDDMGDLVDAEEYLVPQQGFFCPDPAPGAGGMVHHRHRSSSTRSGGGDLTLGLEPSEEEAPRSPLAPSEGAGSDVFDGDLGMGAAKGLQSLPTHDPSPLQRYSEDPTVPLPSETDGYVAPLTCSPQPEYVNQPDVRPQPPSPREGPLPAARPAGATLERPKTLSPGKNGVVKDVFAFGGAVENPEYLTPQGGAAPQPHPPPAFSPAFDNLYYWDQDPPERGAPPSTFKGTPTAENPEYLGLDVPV

| IC50 [1] [µM] | IC50 (Her2) [µM] | SMILES |
| --- | --- | --- |
| 3 | 5 | Cc1cc(C(=O)NC(CCC(=O)O)C(=O)O)ccc1N(Cc1ccoc1)Cc1cnc2nc(N)nc(N)c2n1 (centres unmarked) [Formula VII] |
| 3.5 | 5 | C#CCN(Cc1cnc2nc(N)nc(N)c2n1)c1ccc(C(=O)NC(CCC(=O)O)C(=O)O)cc1OC (centres unmarked) [Formula VIII] |
| 3.5 | 0.9 | C#CCN(Cc1cnc2nc(N)nc(N)c2n1)c1ccc(C(=O)NC(CCC(=O)O)C(=O)O)cc1C (centres unmarked) [Formula III, 2-{4-[(2,4-diamino-pteridin-6-ylmethyl)-prop-2-ynyl-amino]-3-methyl-benzoylamino}-pentanedioic acid] |
| 14 | 7.5 | C#CCN(Cc1cnc2nc(N)nc(N)c2n1)c1ccc(C(=O)NC(CCC(=O)O)C(=O)O)cc1OC(F)(F)F (centres unmarked) [Formula IX] |
